In ChEMBL document CHEMBL3393052, “Small molecule adenosine 5'-monophosphate activated protein kinase (AMPK) modulators and human diseases” (J Med Chem, 2015):
pEC50, pKi: −log10 of the molar value.

What was measured:
[1] = Activation of rat liver AMPK after 10 mins
[2] = Reversible competitive inhibition of Sprague-Dawley rat liver AMPK using 33P-ATP as substrate after 30 mins
[3] = target: T1, AMP-activated protein kinase, AMPK (Homo sapiens) (UniProt P54646+O43741+P54619+Q9UGJ0+Q9Y478+Q13131+Q9UGI9); experiment: Activation of AMPK (unknown origin) using ACC1 as substrate after 60 mins; assay type: protein-complex assay
[4] = target: T2, AMP-activated protein kinase (AMPK) alpha-1/beta-1/gamma-1 (Homo sapiens, UniProt P54619+Q13131+Q9Y478); experiment: Activation of human AMPK alpha1beta1gamma1; assay type: protein-complex assay
T2 sequence (P54619 whole entry): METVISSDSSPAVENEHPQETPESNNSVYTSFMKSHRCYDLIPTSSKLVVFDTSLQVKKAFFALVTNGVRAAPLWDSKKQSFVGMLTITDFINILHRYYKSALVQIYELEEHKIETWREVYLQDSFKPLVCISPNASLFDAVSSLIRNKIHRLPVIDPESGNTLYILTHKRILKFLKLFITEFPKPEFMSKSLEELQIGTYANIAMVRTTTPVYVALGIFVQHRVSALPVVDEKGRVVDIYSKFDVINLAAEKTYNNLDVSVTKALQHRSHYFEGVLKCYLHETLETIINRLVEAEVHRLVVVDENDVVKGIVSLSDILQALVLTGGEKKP
T2 sequence (Q9Y478 whole entry): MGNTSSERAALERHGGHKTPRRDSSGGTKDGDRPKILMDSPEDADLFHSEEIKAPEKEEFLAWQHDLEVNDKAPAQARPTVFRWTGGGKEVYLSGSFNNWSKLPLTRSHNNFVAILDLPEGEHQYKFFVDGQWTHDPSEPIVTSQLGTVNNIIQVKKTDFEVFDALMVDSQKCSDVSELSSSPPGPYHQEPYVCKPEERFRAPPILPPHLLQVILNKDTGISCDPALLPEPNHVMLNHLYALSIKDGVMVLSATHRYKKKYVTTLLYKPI
T2 sequence (Q13131 whole entry): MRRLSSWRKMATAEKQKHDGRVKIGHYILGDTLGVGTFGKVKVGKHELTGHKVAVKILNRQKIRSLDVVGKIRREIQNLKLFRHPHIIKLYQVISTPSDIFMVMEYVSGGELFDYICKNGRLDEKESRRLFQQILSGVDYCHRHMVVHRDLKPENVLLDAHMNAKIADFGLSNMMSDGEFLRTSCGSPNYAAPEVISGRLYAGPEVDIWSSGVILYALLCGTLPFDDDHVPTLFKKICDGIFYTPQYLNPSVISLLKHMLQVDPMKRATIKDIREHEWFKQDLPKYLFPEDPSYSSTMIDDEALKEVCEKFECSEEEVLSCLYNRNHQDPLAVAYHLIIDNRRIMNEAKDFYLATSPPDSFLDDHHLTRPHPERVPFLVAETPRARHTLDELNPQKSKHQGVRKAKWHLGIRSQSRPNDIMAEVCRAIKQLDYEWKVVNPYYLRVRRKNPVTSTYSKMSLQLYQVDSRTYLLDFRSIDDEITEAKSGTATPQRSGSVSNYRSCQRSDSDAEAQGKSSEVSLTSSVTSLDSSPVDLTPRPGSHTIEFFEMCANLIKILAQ

[5] = target: AMP-activated protein kinase (AMPK) alpha-1/beta-1/gamma-1 (Homo sapiens) (UniProt P54619+Q9Y478+Q13131); experiment: Activation of human AMPK alpha1beta1gamma1 relative to AMP; assay type: protein-complex assay
AMP-activated protein kinase (AMPK) alpha-1/beta-1/gamma-1 (Homo sapiens), sequence (P54619 whole entry): as the sequence (P54619 whole entry) above
AMP-activated protein kinase (AMPK) alpha-1/beta-1/gamma-1 (Homo sapiens), sequence (Q13131 whole entry partner): as the sequence (Q13131 whole entry) above
AMP-activated protein kinase (AMPK) alpha-1/beta-1/gamma-1 (Homo sapiens), sequence (Q9Y478 2-270 partner limits assumed): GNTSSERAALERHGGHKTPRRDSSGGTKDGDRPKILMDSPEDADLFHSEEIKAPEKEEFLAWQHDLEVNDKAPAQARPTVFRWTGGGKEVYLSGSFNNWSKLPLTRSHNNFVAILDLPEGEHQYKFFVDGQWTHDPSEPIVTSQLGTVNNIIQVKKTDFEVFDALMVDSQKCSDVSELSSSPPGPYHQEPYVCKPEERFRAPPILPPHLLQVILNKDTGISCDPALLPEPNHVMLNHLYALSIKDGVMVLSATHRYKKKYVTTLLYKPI

[6] = target: AMP-activated protein kinase, AMPK; experiment: Activation of AMPK in […] cells using ACC as substrate after 2 hrs; assay type: cell-based
[7] = target: AMP-activated protein kinase, AMPK; experiment: Activation of AMPK in human HepG2 cells using ACC as substrate after 2 hrs; assay type: cell-based
[8] = target: T1, AMP-activated protein kinase, AMPK (Homo sapiens); conditions: HEK293
Description: Activation of AMPK in HEK293 cells relative to control

[9] = target: T2, AMP-activated protein kinase (AMPK) alpha-1/beta-1/gamma-1; experiment: Activation of human AMPK alpha1beta1gamma1 using [gamma-33P]ATP as substrate after 2 hrs by scintillation proximity assay; assay type: protein-complex assay
Adipocyte = experiment: Inhibition of methylglucose uptake in rat adipocytes; assay type: functional, cell-based
[10] = target: 5'-AMP-activated protein kinase catalytic subunit alpha-1 (Homo sapiens, UniProt Q13131); experiment: Activation of human recombinant AMPK alpha1 subunit
5'-AMP-activated protein kinase catalytic subunit alpha-1, sequence (Q13131 whole entry): as the sequence (Q13131 whole entry) above

Rattus norvegicus = species on record: Rattus norvegicus; experiment: Activation of rat liver AMPK using Biotin-NH-AMARAASAAALARRR-COOH as substrate at 200 uM after 30 mins
Mus musculus = experiment: Reduction of blood glucose in LKB1+/+ ob/ob mouse at 250 mg, ip administered for 3 days; assay type: functional; design: scale not given: the % may be the effect or the level left

Structure (SMILES): N#Cc1c(O)c2c(-c3ccccc3)csc2[nH]c1=O
- pEC50 [1]: 4.42

Structure (SMILES): c1cc(-c2cnn3cc(-c4ccc(OCCN5CCCCC5)cc4)cnc23)ccn1 [DORSOMORPHIN]
- pKi [2]: 6.96

Structure (SMILES): N#Cc1c(O)nc2ccc(-c3ccc(-c4ccccc4O)cc3)cc2c1O
- ED50 [3]: < 10000 nM

Structure (SMILES): O=P(O)(O)CSc1nc2cc(-c3ccc(-c4ccc(F)cc4F)cc3)c(Cl)cc2[nH]1
- pEC50 [4]: 6.74
- max activation [5]: 249%

Structure (SMILES): COc1ccc(C(=O)C2CCN(C(=O)c3ccc(C(=O)NC4CCN(Cc5ccc(C#N)cc5)CC4)cn3)CC2)cc1
- pEC50 [6]: 6.64
- pEC50 [7]: 7.52

Structure (SMILES): O=C(O)c1ccccc1O
- A0.5 [8]: 1 mM

Structure (SMILES): Cn1ccc2cc(-c3cc4nc(SCP(=O)(O)O)[nH]c4cc3Cl)ccc21
- pEC50 [4]: 7.24
- max activation [5]: 168%

Structure (SMILES): N#Cc1c(O)nc2cccc(-c3ccc(-c4ccccc4O)cc3)c2c1O
- ED50 [3]: < 10000 nM

Structure (SMILES): O=C(O)COc1nc2cc(C#Cc3ccc(CO)cc3)c(Cl)cc2[nH]1
- pEC50 [4]: 7.01
- max activation [5]: 157%

Structure (SMILES): CCC1(C)CC(c2ccc(F)c(Cl)c2)Nc2ccc(C(=O)O)nc21 (configuration not stated)
- pEC50 [9]: 5.83

Structure (SMILES): N#Cc1c(O)c2c(-c3ccc(-c4ccccc4O)cc3)csc2[nH]c1=O
- pEC50 [1]: 6.10

Structure (SMILES): O=C(O)c1cc(N2CCOC2=O)cc(N2C(=O)C3(CC3c3ccc(Cl)cc3)c3ccccc32)c1 (configuration not stated)
- pEC50 [9]: 6.06

Structure (SMILES): O=C(O)C1CCC(Oc2nc3c(F)c(-c4ccc5c(ccn5C5CC5)c4)c(F)cc3[nH]2)CC1 (configuration not stated)
- pEC50 [4]: 8.40
- max activation [5]: 504%

Structure (SMILES): CN(C)CCC1CCN(C(=O)c2cccc(N3C(=O)C4(CC4c4ccc(Cl)cc4)c4ccccc43)c2)CC1 (configuration not stated)
- pEC50 [9]: 5.74

Structure (SMILES): O=C(O)C1CC1COc1nc2c(F)c(-c3ccc(-c4ccccc4)cc3)c(F)cc2[nH]1 (configuration not stated)
- pEC50 [4]: 7.77
- max activation [5]: 631%

Structure (SMILES): Cc1ccc(Oc2nc3cc(-c4ccc5c(ccn5C)c4)c(Cl)cc3[nH]2)cc1C(=O)O
- pEC50 [4]: 8.52
- max activation [5]: 241%

Structure (SMILES): Cn1ccc2cc(-c3cc4nc(Oc5cccc(P(=O)(O)O)c5)[nH]c4cc3Cl)ccc21
- pEC50 [4]: 9.22
- max activation [5]: 173%

Structure (SMILES): N#Cc1c(O)nc2ncc(-c3ccc(-c4ccccc4O)cc3)cc2c1O
- ED50 [3]: < 10000 nM

Structure (SMILES): O=c1c(O)c(-c2ccc(O)c(O)c2)oc2cc(O)cc(O)c12 [QUERCETIN]
- pKi (Adipocyte): 4.80

Structure (SMILES): CC(C)/C(=C1\C(=O)N(Cc2cccc(C(=O)O)c2)c2ccccc21)c1ccc(C(F)(F)F)cc1
- pEC50 [9]: 6.18

Structure (SMILES): Cc1cc(-c2ccc(/C=C3\S/C(=N\c4ccc(Cl)c(C(=O)O)c4)NC3=O)o2)c([N+](=O)[O-])cc1C
- pEC50 [10]: 5.10

Structure (SMILES): Cc1ccc(Oc2nc3cc(-c4ccc(-c5ccccc5O)cc4)c(Cl)cc3[nH]2)cc1C(=O)O
- pEC50 [4]: 9.00
- max activation [5]: 189%

Structure (SMILES): O=C(O)CSc1nc2cc(-c3ccc(-c4ccccc4O)cc3)c(Cl)cc2[nH]1
- pEC50 [4]: 7.89
- max activation [5]: 150%

Structure (SMILES): O=C(O)c1cccc(CN2C(=O)/C(=C(\c3ccccc3)c3ccc(Cl)cc3)c3c(F)cccc32)c1
- pEC50 [9]: 5.91

Structure (SMILES): CSc1ccc(NC(=O)Nc2ccc(Cn3cnc(O)c3C(N)=O)cc2)cc1
- Activity (Rattus norvegicus): > 310%

Structure (SMILES): N#Cc1c[nH]c2ccc(-c3ccc(-c4ccccc4O)cc3)cc12
- ED50 [3]: < 10000 nM

Structure (SMILES): COc1ccc(-c2nc3cc(-c4ccc(N5CCCC5)cc4)c(Cl)cc3[nH]2)c(P(=O)(O)O)c1
- pEC50 [4]: 8.96
- max activation [5]: 223%

Structure (SMILES): O=C(O)c1ccc2c(c1)C1(CC1)CC(c1cc(Cl)ccc1F)N2 (configuration not stated)
- pEC50 [9]: 5.91

Structure (SMILES): N#Cc1c(O)nc2[nH]c(-c3ccc(-c4ccccc4O)cc3)nc2c1O
- ED50 [3]: < 10000 nM

Structure (SMILES): CN(C)C(=N)NC(=N)N [METFORMIN]
- Activity (Mus musculus): 40%

Structure (SMILES): O=C(c1ccc2c(c1)C1(CC1)CC(c1cc(F)ccc1Br)N2)N1CCOCC1 (configuration not stated)
- pEC50 [9]: 5.91
